Laboratory results published in patent publication US20230404980A1, “METHODS OF TREATING SPONDYLOARTHRITIS OR SYMPTOMS THEREOF” (UNIVERSITY HEALTH NETWORK, priority 2020, published 2023).

Columns and labels:
[1] = cited from earlier work
curdlan-treated SKG mice [2] = assay: Curdlan-treated SKG mouse model of SpA: clinical scores, histopathology, microCT; type: in vivo
Description: (§1) Methods: Curdlan (β-glucan) or MIF-plasmid (mini-circle) treated SKG mice (8-10 weeks) were used as SpA mouse models. The expression of MIF in serum or tissues was measured by ELISA, quantitative PCR (qPCR), western blotting, immunohistochemistry (IHC) and/or immunofluorescence (IF). MIF knockout (KO) SKG mice were generated as MIF deficiency mice. MIF inhibitor (MIF098) was used to block the function of MIF in SpA mouse models to assess the therapeutic or prophylactic effects in a curdlan-treated SpA mouse model. Populations of immunological cells were assessed by flow cytometry. Anti-Gr-1 monoclonal antibody (mAb) or isotype control mAb was used to block the function of neutrophils or monocytes. Clinical scores, histopathology and microCT imaging were used to assess the severity of inflammation in the various tissues of the mouse models.
#1. Animal model, treatments and clinical scoring: Female and male SKG mice (age 8-10 weeks) were injected with PBS, curdlan (3 mg/mouse, i.p.), MIF-plasmid (EEV, 5 μg/mouse, i.v., from systemic biosciences), or control-plasmid (5 μg/mouse, i.v., from systemic biosciences) to induce SpA phenotype and weekly observed the clinical manifestations of inflammation and NBFs over 8 weeks (n=10 mice/group). C57BL/6 and BALB/c mice (age 8-10 weeks) were also subjected to MIF- or control-plasmid injection to observe clinical symptoms. MIF- or control plasmid was administered by HDD tail vein injection as previously described (11). We also generated Mif−/− (KO) SKG mice by crossing SKG mice and BALB/c Mif KO mice (22).
(§2) After 1 or 4 weeks post-curdlan treatment, we injected MIF antagonist (MIF098; 40 mg/kg, twice/day, i.p.) (23) or control vehicle [PEG400 (Sigma, cat#91893) and HP-P-P-CD (Sigma, cat#C0926)] to assess the prophylactic and therapeutic effects of the MIF098 on the inflammation and NBFs in the SpA mouse model until 8 weeks post-curdlan treatment. Anti-mouse Gr-1 antibody (100 μg/mouse, Life Technologies) or isotype IgG monoclonal antibodies (100 μg/mouse, Life Technologies) were administered on day 3, 6, 9, 12 and 15 post-curdlan treatment.
(§3) Clinical scores for SpA-related manifestations were assessed based on severity scales (Table 1); arthritis, maximum 6 points; dermatitis, maximum 2 points; blepharitis, maximum 2 points). The scores were evaluated at least 2 independent scorers in a blinded fashion and final scores were the average of the observations. At the endpoint, ankle joints, spleen and lymph nodes (PLNs and MLNs) were dissected for FACS, one ankle was dissected prior to storage in RNA later for qPCR unless used for FACS, the other ankle was kept intact and fixed in 10% neutral buffered formalin for histopathological assessments. The upper tail spine, pelvis, eyes and ileum were dissected and fixed in 10% neutral buffered formalin for histopathology. For ankle digestion, skin was peeled off and toes (at distal phalanges) and tibia (˜0.5 cm above tibia) were cut off. After flushing bone marrow, the tissue was digested with RPMI culture media containing hyaluronidase and collagenase type VIII for 1 h at 37° C. in incubator. Following passing through 70 μm of cell strainer and RBC lysis treatment, cells were centrifuged and used for FACS analysis.
Ankle joints, tail spine, and pelvis were fixed in 10% neutral buffered formalin for at least 72 h, decalcified in 10% EDTA (BioShop) for 14-21 days and embedded in paraffin. Eyes and ileum were fixed in formalin for at least 72 h without decalcification. Serial sections (4 μm) were stained with hematoxylin and eosin (H&E; Fisher Scientific). To assess endochondral ossification, safranin O/ fast green staining was also applied to NBF in distal tibia as previously described (24, 25). For histological scores, multiple sections (three sections approximately 40-80 μm apart) per joint sample were evaluated by 2 independent scorers in a blinded fashion according to histological assessments as previously reported (11, 24). […]

curdlan-treated SKG mice [3] = assay: Flow cytometry of immune cell populations from curdlan-treated SKG mice; type: in vivo, mouse
Description: as §1, §2, §3
For all panels, single cell suspensions were first stained with a fixable live dead stain (L/D NIR, Invitrogen, cat#L10119) as directed by the manufacturers. Cells were blocked with FcX (BioLegend, cat#101320) or Monocyte Blocker (BioLegend, cat#426102) prior to staining with surface antibodies. For experiments in which transcription factors were stained, cells were fixed and permeabilized with True-Nuclear kit (BioLegend, cat#424401) as directed. For experiments in which cytokines were stained, cells were fixed with a PFA buffer and permeabilized with intracellular staining buffer (BioLegend, cat#420801 and cat#421002) as indicated. Brefeldin A (BioLegend, cat#420601) with or without PMA/ionomycin (BioLegend, cat#423302) were used for in vitro stimulations to detect intracellular cytokines. Data were acquired on LSR II or Canto II (BD) and analyzed with FlowJo (version 10.6, Becton Dickinson).

human Tregs = assay: Th17 acquisition assay in human Tregs and cytokine measurement; type: cell-based; conditions: rhMIF 50 ng/ml, 12 days
Description: Human naïve CD4+ T cells and Tregs (CD4+CD25+CD127low) were isolated from PBMCs of healthy male controls without any history of back pain, arthritis, and joint injuries (age: 18-40, n=4 individuals in total) using the human naïve T cells isolation kit (STEM CELL, Cat #19555) and Treg isolation kit (STEM CELL, cat#18063), respectively. Isolated human Tregs (3×10^4 cells/well) were cultured in the complete IMDM culture media containing ImmunoCult™ Human CD3/CD28/CD2 T Cell Activator (25 μl/ml, STEMCELL, cat#10970), and rhIL-2 (100 IU/ml, BioLegend, cat#589102) alone or in combination with or without rhMIF (50 ng/ml, BioLegend, cat#599404), rhIL-1β (25 ng/ml, BioLegend, cat#579402) and rhIL-23 (100 ng/ml, BioLegend, cat#574102) for 12 days. Each culture media was replaced ever 2-3 days. The cells were used for further analysis.
Released cytokine in cell culture supernatant on day 12 was quantified using the LEGENDplex Human Th17 Cytokine Panel (BioLegend, cat#741032) according to the manufacturer's instructions.
For all panels, single cell suspensions were first stained with a fixable live dead stain (L/D NIR, Invitrogen, cat#L10119) as directed by the manufacturers. Cells were blocked with FcX (BioLegend, cat#101320) or Monocyte Blocker (BioLegend, cat#426102) prior to staining with surface antibodies. For experiments in which transcription factors were stained, cells were fixed and permeabilized with True-Nuclear kit (BioLegend, cat#424401) as directed. […] Data were acquired on LSR II or Canto II (BD) and analyzed with FlowJo (version 10.6, Becton Dickinson).
The concentration of MIF in SKG mice or culture supernatant media and the concentration of IL-17A in the human Tregs culture media were assessed by mouse MIF ELISA kit (LEGEND MAX™ Mouse MIF ELISA Kit, BioLegend, cat# 44107) and Human IL-17A ELISA kit (LEGEND MAX™ Human IL-17A ELISA Kit, BioLegend, cat# 433917) were used, respectively. Samples were analyzed according to the manufacture's instruction.

[4] = prophylactic: MIF098 40 mg/kg i.p. twice daily from 1 to 8 weeks post-curdlan, female SKG mice, vs CTL
[5] = SKG SpA mouse model, summary of Example 1
[6] = prophylactic MIF098, 8 weeks post-curdlan, vs CTL

CC(C)C(=O)c1c(C(C)C)nn2ccccc12 [Ibudilast, 2-methyl-1-(2-propan-2-ylpyrazolo[1,5-a]pyridin-3-yl)propan-1-one]
toxicity in clinical trials ([1]; clinical trials for asthma and multiple sclerosis): minimal toxicity
safety ([1]; single 30-mg dose followed by 14 days of 30 mg b.i.d, healthy adults): generally safe

C=C1Cc2ccc(C)cc2C1Cc1cccc(C)c1 (stereo not shown) [MIF098]
SpA clinical manifestations (colitis, psoriasis, arthritis in axial and peripheral joints) (curdlan-treated SKG mice [2]; SKG SpA mouse model, MIF blockade): dramatically suppressed or attenuated
inflammation in the ankle, tail spine, sacroiliac joints, and ileum (histology and histopathology scoring) (curdlan-treated SKG mice [2]; prophylactic, 8 weeks post-curdlan, vs CTL): Lower severity of inflammation
new bone formation (NBF), microCT imaging and histological assessments (curdlan-treated SKG mice [2]; prophylactic, distal tibia, 8 weeks post-curdlan, vs CTL): did not display an evident NBF
severity of blepharitis (clinical score) (curdlan-treated SKG mice [2]; [4]): reduced severity
severity of psoriasis-like dermatitis (clinical score) (curdlan-treated SKG mice [2]; [4]): reduced severity
severity of arthritis (clinical score) (curdlan-treated SKG mice [2]; prophylactic: MIF098 40 mg/kg i.p. twice daily from 1 to 8 weeks post-curdlan, female SKG mice, vs vehicle control (CTL)): reduced severity
severity of psoriasis-like dermatitis (curdlan-treated SKG mice [2]; therapeutic: MIF098 from 4 weeks to 8 weeks post-curdlan, female SKG mice, vs CTL): reduced the severity
new bone formation (NBF), histological assessments (curdlan-treated SKG mice [2]; therapeutic: MIF098 from 4 weeks to 8 weeks post-curdlan, vs CTL): reduced
severity of arthritis (curdlan-treated SKG mice [2]; therapeutic: MIF098 injected from 4 weeks to 8 weeks post-curdlan, female SKG mice, vs CTL): reduced the severity
populations of Th17 (curdlan-treated SKG mice [3]; [5]): decreased populations of Th17
regulatory T (Treg) cells (curdlan-treated SKG mice [3]; [5]): increased
RORγt+Foxp3+CD4+ T cells (curdlan-treated SKG mice [3]; curdlan-treated SKG mice, 8 weeks post-curdlan, vs CTL): decreased
frequency of ILC3s in PLNs (curdlan-treated SKG mice [3]; [6]): significantly deceased
frequency of Th17 lineage cells in PLNs (curdlan-treated SKG mice [3]; [6]): significantly deceased
percentage of Th17 lineage cells in spleen (curdlan-treated SKG mice [3]; [6]): no significant difference
percentage of Tregs (PLNs) (curdlan-treated SKG mice [3]; [6]): significant increase
percentage of Tregs in spleen (curdlan-treated SKG mice [3]; [6]): significant increase
percentage of inflammatory macrophages in the ankle joints (curdlan-treated SKG mice [3]; [6]): no difference between groups
percentage of patrolling macrophages in the ankle joints (curdlan-treated SKG mice [3]; [6]): increase
ILC2s (curdlan-treated SKG mice [3]; prophylactic MIF098, curdlan-treated SKG mice, vs CTL): remarkably increased

B1: rhMIF: recombinant human MIF (BioLegend) used to stimulate human Tregs (protein, UniProt P14174 2-115, looked up)
Macrophage migration …: PMFIVNTNVPRASVPDGFLSELTQQLAQATGKPPQYIAVHVVPDQLMAFGGSSEPCALCSLHSIGKIGGAQNRSYSKLLCGLLAERLRISPDRVYINYYDMNAANVGWNNSTFA
release of IL-6 (human Tregs): without increased release
frequency of RORγt+CD4+ T cells from Tregs (human Tregs; in the presence of IL1β and IL23, vs without rhMIF): increased
secretion of IL-17A into the culture media (human Tregs; vs control-treated Tregs): significantly higher
